Results on nine compounds are retold here after US8772268B2, “Bisphosphonamidate prodrugs and uses thereof” (The Johns Hopkins University, priority 2010, dated 2014).

Each structure is given as a SMILES string. Where “and” joins values, the source holds several entries; their conditions need not be identical. Identical values can stand only once. Like-named read-outs stand apart in the source and are kept apart here.

The subject of assay [1] is A549 NSCLC cells. As to the kind of experiment: MTS cell proliferation assay, A549. The format is cell-based. As to conditions: for growth inhibitory effect against A549 cells: concentrations up to 1 mM; for EC50: Homo sapiens, A549 (NSCLC), MTS, table of Example 3; for IC50: A549, MTS, read-out: IC50 (decreased cell proliferation by 50% compared to control). As for the experimental part: Cell proliferation was determined using the CellTiter 96 Aqueous One Solution Cell Proliferation Assay MTS assay. A549 NSCLC cells were plated at 1.5×10^3 cells per well in flat bottom 96 well plates in 99 μL of media and allowed to adhere overnight. The drugs were serially diluted in 100% DMSO. For each drug treatment group, 1 μL of a 100× stock solution was added to each well for a final DMSO concentration of 1%. Cells were treated for 24, 48 or 72 hours. Cells were incubated with MTS dye (20 μL well^−1) for 40 min to 2 h. Absorbance at 490 nm was determined using a SpectraMax M2 (Molecular Devices) plate reader. The percent cell proliferation was calculated by converting the experimental absorbance to percentage of control, which was then plotted vs. drug concentration. The IC50 values were determined using a non-linear dose-response analysis in GraphPad Prism version 4.0. The IC50 is defined as the concentration of drug needed to cause a 50% decrease in proliferation compared to vehicle control. […]
Background: Formazan colour is commonly taken as a measure of viable cells.

Assay [2] concerns P. falciparum (NF54). As to the kind of experiment: Antimalarial [3H]-hypoxanthine incorporation assay. The assay is classed as cell-based, Plasmodium falciparum. As for the experimental part:
Plasmodium falciparum culture. NF54 P. falciparum parasites were maintained in O+ positive erythrocytes (obtained weekly from a rotating pool of screened healthy donors) in complete medium containing RPMI (Sigma), 25 mM N-2-hydroxyethylpiperazine-N′-2-ethanesulfonic acid (HEPES; Sigma), 27 mM sodium bicarbonate (Sigma) and 10% heat-inactivated male O+ serum in non-vented flasks. Hematocrit was maintained at 2.4%. Flasks were gassed with a mixture of 3% oxygen, 4% carbon dioxide, 93% nitrogen. Parasitemia was maintained at 0.1-5% by changing medium and erythrocytes two to three times a week.
Antimalarial activity was measured using a [^3H]-hypoxanthine incorporation assay as described previously (Desjardins et al., Antimicrob. Agents Chemother., vol. 16, p. 710, 1979; Milhous et al., Antimicrob. Agents Chemother., vol. 27, np. 525, 1985). […] For surveys, each concentration was assayed in triplicate while in expansions, each concentration was assayed in quadruplicate. To each well, 0.64 μCi of [^3H]-hypoxanthine (10-30 Ci/mmol; Perkin Elmer) was added and the plate was incubated for an additional 20 to 24 h. Samples from each well were harvested on filter paper and tritium counts were measured on the Beckmann Coulter LS6500 scintillation counter. […] Values considered as outliers according to Chauvenet's criterion were discarded and dropped from analysis. One survey and at least one expansion was performed for each compound.

Assay [3] concerns A549 NSCLC cells. The experiment in a line: Activity of other esters against NSCLC (FIG. 13A-D). To be noted: Homo sapiens. The format is cell-based. As for the experimental part:
Cells were dosed as described above. […] The results shown in FIG. 13 are from a single experiment only.
Results are shown in FIG. 13 and in the table below

Assay [4] has as its system PIP3 (prostate) cancer cell line. As to the kind of experiment: MTS cell proliferation assay, PIP3. The format is cell-based. The protocol: (§1) Cell proliferation was determined using the CellTiter 96 Aqueous One Solution Cell Proliferation Assay MTS assay. A549 NSCLC cells were plated at 1.5×10^3 cells per well in flat bottom 96 well plates in 99 μL of media and allowed to adhere overnight. The drugs were serially diluted in 100% DMSO. For each drug treatment group, 1 μL of a 100× stock solution was added to each well for a final DMSO concentration of 1%. Cells were treated for 24, 48 or 72 hours. Cells were incubated with MTS dye (20 μL well^−1) for 40 min to 2 h. Absorbance at 490 nm was determined using a SpectraMax M2 (Molecular Devices) plate reader. The percent cell proliferation was calculated by converting the experimental absorbance to percentage of control, which was then plotted vs. drug concentration. The IC50 values were determined using a non-linear dose-response analysis in GraphPad Prism version 4.0. The IC50 is defined as the concentration of drug needed to cause a 50% decrease in proliferation compared to vehicle control.
(§2) The activity of Clodronate prodrug (14) was tested against other cell lines, include prostate (PIP3) and breast (MDA-MB-453) cancer cells lines. Cell proliferation was determined using the CellTiter 96 Aqueous One Solution Cell Proliferation Assay MTS assay as discussed above. Results are shown in FIG. 22 and in the table below.

Assay [5] has as its system MDA-MB-453 (breast) cancer cell line. The experiment in a line: MTS cell proliferation assay, MDA-MB-453. The format is cell-based. As to conditions: Homo sapiens. As for the experimental part: as §1, §2
The test system of assay [6] is L1210. As to the kind of experiment: Cytotoxicity, L1210. The assay is classed as cell-based.
In assay [7] the test system is breast and ovarian cancers. As to conditions: cited from earlier work.
The test system of assay [8] is lung cancer cell lines. To be noted: cited from earlier work.
In assay [9] the test system is A549 NSCLC cells. The experiment in a line: Trypan blue cell count assay, A549. To be noted: for EC50: read-out: EC50 (decreased cell number by 50% compared to control). As for the experimental part: A549 NSCLC cells were plated at 1.7×10^4 cells per well in flat bottom 12-well plates. Cells were dosed as described above. At 24, 48 or 72 hours following drug treatment, the media was collected, and the cells were washed with 200 μL PBS. Each well was trypsinized with 200 μL trypsin for 3-5 min. The trypsin reaction was quenched with an equal volume of media. All supernatants and washes were combined and spun at 1,500 rpm for 5 min. Supernatant was decanted, and the cells were resuspended in 200 μL media. The cells were diluted 1:1 in 0.04% trypan blue and counted using a cytometer. The absolute number of cells was determined at each drug concentration. The cell number for each concentration was converted to percent of control for each time point, and plotted using GraphPad Prism 4.0. The EC50 was calculated as the concentration of drug that caused a 50% decrease in number of cells compared to control.
The number of viable cells at each dose was determined at 0, 24, 48 and 72 hours following drug treatment and plotted as a percent of control (FIG. 6A).

In assay [10] the test system is A549. As to the kind of experiment: Cyclized zoledronate intermediate vs zoledronic acid, normoxia/hypoxia, A549. The format is cell-based. To be noted: Homo sapiens.
In assay [11] the test system is H358. As to the kind of experiment: Cyclized zoledronate intermediate vs zoledronic acid, normoxia/hypoxia, H358. To be noted: Homo sapiens. The assay is classed as cell-based.
The subject of assay [12] is several cancer cell lines. To be noted: cited from earlier work.
Setting [13] is: Plasmodium falciparum, P. falciparum (NF54), read-out: IC50.
The mark [14] stands for this setting: A549, 24 h, single experiment, read-out: IC50 24 h.
Setting [15] is: A549, 48 h, single experiment, read-out: IC50 48 h.
Setting [16] is: A549, 72 h, single experiment, read-out: IC50 72 h.

Turning to `O=P(O)(O)CP(=O)(O)O` [Bisphosphonate, reference compound], in [1], the “growth inhibitory effect against A549 cells” value is recorded as “minimal activity”.
Turning to `CN(CCCCCl)P(=O)(OCc1ccccc1)C(Cl)(Cl)P(=O)(OCc1ccccc1)N(C)CCCCCl` (stereo not drawn) [Chlorobenzyl analog], the IC50 in assay [2] (Plasmodium falciparum, NF54) amounted to 5.9 µM; in [3] (A549, 24 h, read-out: IC50 24 h), 18.9 µM; in assay [3] (A549, 48 h, read-out: IC50 48 h), 11.9 µM; in [3] (A549, 72 h, read-out: IC50 72 h), 11.6 µM.
Turning to `O=P(O)(O)C(Cl)(Cl)P(=O)(O)O` [Clodronate, clodronate, reference compound], the half-maximal effective concentration (EC50) in assay [1], in assay [4] and in assay [5] was > 1000 µM throughout. The “growth inhibitory effect against A549 cells” value was “minimal activity” in [1] and “does not exhibit a detectable growth inhibitory effect” in assay [1] (listed as clodronate). For the same compound, the IC50 in [2] (setting [13]) is 750 µM; in assay [6] (Mus musculus), 830 µM. Moreover, the growth inhibition result in assay [7] is recorded as “high micromolar or low millimolar range”. Besides, in assay [8], the “activity against lung cancer cell lines” value is listed as “minimal activity”.
For the compound `CN(CCCCCl)P(=O)(CP(=O)(OCc1ccccc1)N(C)CCCCCl)OCc1ccccc1` (stereo not drawn) [Deschlorobenzyl Analog], the IC50 in assay [3] (setting [14]) was 21.6 µM; in assay [3] (setting [15]), 12.8 µM; in assay [3] (setting [16]) it was 7.8 µM.
On to `CCN(CC)P(=O)(OCc1ccc([N+](=O)[O-])cc1)C(Cl)(Cl)P(=O)(OCc1ccc([N+](=O)[O-])cc1)N(CC)CC` (stereo not drawn) [Diethylamine Analog], for which, in assay [2] (setting [13]), the IC50 was found to be 3.3 µM.
Take `COP(=O)(N(C)CCCCCl)C(Cl)(Cl)P(=O)(OC)N(C)CCCCCl` (stereo not drawn) [Methoxy analog]: the IC50 was 22 µM in assay [2] (setting [13]), 93.4 µM in assay [3] (setting [14]), 100 µM in [3] (setting [15]) and 76.3 µM in assay [3] (setting [16]).
As for `CN(CCCCCl)P(=O)(OCCc1ccc([N+](=O)[O-])cc1)C(Cl)(Cl)P(=O)(OCCc1ccc([N+](=O)[O-])cc1)N(C)CCCCCl` (stereo not drawn) [Nitrophenethyl analog], the concentration for a half-maximal effect (EC50) (usually the concentration needed to bring the measured effect to its halfway point) in assay [9] (Homo sapiens, A549, 24 h) is ~10 µM; in [9] (Homo sapiens, A549, 48 h), 3.5 µM; in assay [9] (Homo sapiens, A549, 72 h), 4.2 µM. Also, the IC50 in [2] (setting [13]) was determined as 0.97 ± 0.21 µM; in assay [3] (setting [14]), 4.8 µM; in assay [3] (setting [15]), 3.1 µM; in assay [3] (setting [16]), 2.1 µM.
`O=P(O)(O)C(O)(Cn1ccnc1)P(=O)(O)O` [Zoledronate, zoledronate]: the concentration for a half-maximal effect (EC50) was determined as 58 µM in assay [1], 78 µM in assay [4] and 191 µM in [5]. Further, the IC50 in assay [10] (A549, 48 h, Hypoxia) was determined as 350 µM; in [10] (A549, 48 h, Normoxia) it was 98 µM; in assay [10] (A549, 72 h, Hypoxia) it was 205 µM; in [10] (A549, 72 h, Normoxia), 45 µM; in [11] (NCI-H358, 48 h, H358, 48 hrs, Hypoxia), 87 µM; in [11] (NCI-H358, 48 h, H358, 48 hrs, Normoxia), 59 µM. For the same compound, the IC50 in [11] (NCI-H358, 72 h, H358, 72 hrs, Hypoxia) was 135 µM; in [11] (NCI-H358, 72 h, H358, 72 hrs, Normoxia) it was 15 µM; in assay [12], ≥ 3 µM.
`CN(CCCCCl)P(=O)(CP(=O)(OCc1ccc([N+](=O)[O-])cc1)N(C)CCCCCl)OCc1ccc([N+](=O)[O-])cc1` (stereo not drawn) [compound 13]: the IC50 was 17 ± 4 µM in assay [1] (24 h); 15.2 µM and 15 µM in [1] (48 h); 13 ± 1 µM in assay [1] (72 h); 5.2 ± 0.21 µM in [2] (P. falciparum (NF54), read-out: IC50); 27 µM in assay [6]. Further, the “decrease in IC50 of 13 compared to 14” value in [1] (A549 cells) is 3 fold. In assay [9] (A549, 48 h), the “EC50 (trypan blue) fold higher than IC50 (MTS)” value is ~3.6 fold. The EC50 turned out to be 24 ± 4 µM in assay [9] (A549, trypan blue, 48 h); 25 ± 4 µM in assay [9] (A549, trypan blue, 72 h); 24 ± 4 µM in [9] (A549, trypan blue, 72 h, listed as Bisphosphonate Prodrug).
